Assay results published in ChEMBL document CHEMBL6109177, “AI-Driven De Novo Design and Development of Nontoxic DYRK1A Inhibitors” (J Med Chem, 2025).
Calls of active or inactive are those of the source. The calls are words filed in the database; no cut-off is given here.

Key:
BV-2 [1] = assay: Anti-inflammatory activity in mouse BV-2 cells assessed as reduction in LPS-induced NO production at 10 uM pretreated with LPS for 24 hrs followed by compound addition and measured after 24 hrs by Griess reagent based analysis; type: functional, cell-based
BV-2 [2] = assay: Cytotoxicity against mouse BV-2 cells assessed as cell viability up to 10 uM by MTT assay; type: toxicity, cell-based; settings: bv-2, 10 µM
BV-2 [3] = assay: Anti-inflammatory activity in mouse BV-2 cells assessed as reduction in LPS-induced NO production pretreated with LPS for 24 hrs followed by compound addition and measured after 24 hrs by Griess reagent based analysis; type: functional, cell-based; settings: dose 0.5-5 µM
BV-2 [4] = assay: Cytotoxicity against mouse BV-2 cells assessed as cell viability at 5 uM by MTT assay; type: toxicity, cell-based; settings: bv-2, 5 µM
BV-2 [5] = assay: Anti-inflammatory activity in mouse BV-2 cells assessed as reduction in LPS-induced NO production at 5 uM pretreated with LPS for 24 hrs followed by compound addition and measured after 24 hrs by Griess reagent based analysis; type: functional, cell-based
BV-2 [6] = assay: Cytotoxicity against mouse BV-2 cells assessed as cell viability at 10 uM by MTT assay; type: toxicity, cell-based; settings: bv-2, 10 µM

Structure (SMILES) | Activity (BV-2 [1]) | Activity (BV-2 [2]) | Activity (BV-2 [3]) | Activity (BV-2 [4]) | Activity (BV-2 [5]) | Activity (BV-2 [6])
COc1cc(-c2c[nH]c3ncc(-c4cnn(C5CCN(C)CC5)c4)cc23)c(F)cc1C | Active | Non-toxic | – | – | – | –
COc1cc(-c2c[nH]c3ncc(-c4cnn(C5CCNCC5)c4)cc23)c(F)cc1C | Active | Non-toxic | – | – | – | –
CN1CCC(n2cc(-c3cnc4[nH]cc(-c5cccc(F)c5)c4c3)cn2)CC1 | – | – | Dose-dependent-effect | Non-toxic | Active; Compound Showed Most Pronounced Effect Compared With Other Tested Compounds | Toxic
Clc1cc(Cl)cc(-c2c[nH]c3ncc(-c4cnn(C5CCNCC5)c4)cc23)c1 | Active | Non-toxic | – | – | – | –
CN1CCC(n2cc(-c3cnc4[nH]cc(-c5cc(Cl)cc(Cl)c5)c4c3)cn2)CC1 | Active | Non-toxic | – | – | – | –
COc1cccc(-c2c[nH]c3ncc(-c4cnn(C5CCN(C)CC5)c4)cc23)c1 | – | – | Dose-dependent-effect | Non-toxic | Active | Toxic
Fc1cccc(-c2c[nH]c3ncc(-c4cnn(C5CCNCC5)c4)cc23)c1 | – | – | Dose-dependent-effect | Non-toxic | Active; Compound Showed Most Pronounced Effect Compared With Other Tested Compounds | Toxic
COc1cccc(-c2c[nH]c3ncc(-c4cnn(C5CCNCC5)c4)cc23)c1 | – | – | Dose-dependent-effect | Non-toxic | Active | Toxic
